Entries after “also recorded” stand apart in the source; their conditions may differ. Structures can show the parent of a compound that is named as a salt.
Legend:
mouse lung = test: Intratracheal plasmid transfection of mouse lung, luciferase reporter assay of lung homogenate; assay type: in vivo; settings: for Level of reporter protein expression after intratracheal administration of plasmid, enhancement by co-administration: intratracheal plasmid with DNAse inhibitor, mouse lung
[1] = tested on: macaque respiratory tissues; test: Bronchoscopic administration of plasmid +/- ATA to macaque lung, luciferase assay and histology; assay type: in vivo; settings: 48 hours after treatment, H&E
Experimental: Extending the experiment from murine to nonhuman primate respiratory tissues, the activity of ‘free’ plasmid DNA +/− ATA in macaque respiratory tissues using male rhesus macaques was tested. Initially, the lavage fluid is tested for DNAse activity +/− ATA by incubation with plasmid after which gel electrophoresis is performed as described above with murine lung lavage samples. After a 70 day quarantine, the animals are treated using three general techniques. For direct administration of […] to pulmonary parenchyma, macaques are anesthetized (ketamine, veterinarian assisted) and a pediatric bronchoscope will be passed per nasum with direct visualization of the bronchial tree. Typically, plasmid preparations (3 ml/Kg macaque weight) or related treatments (plasmid/ATA mixtures etc.) are instilled directly via the bronchoscope into the right lower lobe. The left upper lobe of the same macaque is used as an internal control. […]
As described above, relative luciferase activity is determined using the Enhanced Luciferase Assay Kit and a Monolight 2010 luminometer (both from Analytical Luminescence Laboratories, San Diego, Calif.). […] Luciferase light emissions from 31 microliters of the lysate are measured over a 10 second period, and results are expressed as a function of total protein, total tissue mass, and total DNA dose.

NIH3T3 = test: Transfection of cultured cells with DNA/DOTAP +/- ATA, luciferase assay; assay type: cell-based; settings: very highest doses 80 μg/ml, 40 μg/ml, 10 μg/ml
Experimental: NIH3T3 (ATCC CRL 1658) were grown in Dulbecco's Modified Eagle's Medium and 10% calf serum. NIH3T3 were also plated at a density of 5×10^4 cells/ml in 24 well plates 24 hours prior to transfection and cells were transfected as subconfluent monolayer.
The sequential addition of appropriate amounts of serum-free DMEM, plasmid DNA ([…]), ATA in serum-free DEM and filter sterilized (see below for doses), and DOTAP (DOTAP:DNA formulation of 5 μg: 1 μg) were pippetted into a 2 ml Eppendorf tube to give a total volume of […] and mixed with a vortex mixer. A […] aliquot of the resultant transfection complex was added to each well of the cells above after the cell media had been aspirated off. The cells were incubated for 2 hours at 37° C. At the two hour time point, the mixture was removed and one ml of culture media was added to each well. […]
(§1) Relative luciferase activity was determined using the Enhanced Luciferase Assay Kit and Monolight 2010 luminometer (Analytical Luminescence Laboratories, San Diego, Calif.). […] For In vitro experiments, luciferase light emissions from 20 μl of the cell lysate were measured over a 10 second period, and results expressed as a function of the total lysate volume. For in vivo experiments, luciferase light emissions from […] of the lysate were measured over a 10 second period, and results expressed as a function of the total lysate volume.

Macaque Skin = test: Intradermal injection of luciferase DNA into macaque skin +/- ATA; assay type: in vivo; settings: 100 μg plasmid and 50 μg ATA intradermal versus plasmid alone
Experimental: To further confirm the utility of nuclease inhibitors in combination with direct DNA delivery, the activity of free plasmid DNA +/− ATA in skin tissues was tested. The plasmid and animal protocols were identical to those described above. Intradermal injections were performed by injecting 100 μl solutions using 30 gauge needle.
The experiment was further extended from murine to primate, testing direct intradermal injection on macaques. The control solution was identical to that described for the mice and rat protocols. The test solution contained 100 μg of pND21ux plasmid and 50 μg of ATA in 100 μl water. Ten macaques were included in the control group and twelve were included in the test group.

[2] = Toxicity of intratracheal ATA/plasmid in mice (lethality, health assessment, lung histology); assay type: in vivo, mouse; settings: for mice died: within 8 to 24 hours, pilot experiments
Experimental: Dose-response experiments can be used to efficacy, toxicity, and effective dose of a particular enhancing agent or polynucleotide preparation. […] Histologic evaluation of treated lung tissue was subsequently performed. […] ATA is often employed for inhibition of cultured cell apoptosis, but relatively few publications describe in vivo applications. In vivo dosing employed in published reports ranges from 4 micrograms administered to the […] cerebral ventricle of gerbils to 10 mg/kg/hour continuous infusion in a hamster carotid stenosis model Based on this literature, a dose range from 0.1 mg/kg to 8 mg/kg ATA administered with 100 micrograms of plasmid was tested. […] Subsequent histologic examination was performed using lung tissue obtained from mice treated with up to 5 mg/kg ATA.
To obtain information about toxicity, mouse lung tissue was treated with ATA +/− plasmid and routine histologic analyses were performed. […] Therefore, intratracheal instillation of plasmid +/− ATA was performed, and two days later the treated tissues were histologically analyzed after inflation and fixation in formalin followed by routine hematoxylin and eosin staining in paraffin sections. Treatment groups included untreated controls, 100 μl of water for injection (WFI), 100 μg of pND2Lux diluted in WFI, and plasmid with […] body mass diluted in WFI. The images shown in FIG. 9 are representative photomicroscopic fields that include both conducting airway and pulmonary parenchyma.

16HBE14o = test: Transfection of cultured cells with DNA/DOTAP +/- ATA, luciferase assay; assay type: cell-based, human; settings: very highest doses 80 μg/ml, 40 μg/ml, 10 μg/ml
Experimental: The human respiratory epithelial cell line, 16HBE14o (Dieter Grunert, UCSF) was cultured on flasks coated with fibronectin (Collaborative Research-Bectin Dickinson), vitrogen (Collagen Corp), basal media (Biofluids, Inc.) and bovine serum albumen (Biofluids, Inc.) as previously described [Gruenert, 1990 #7; Cozens, 1994 #8]. Cells were cultured on twenty four well tissue culture plates (Corning) coated with the above mixture. Culture media was Eagle's modified essential medium (EM) supplemented with 10% fetal bovine serum. 16HBE 14o cells were plated at a density of 5×10^4 cells/ml 24 hours prior to transfection and cells were transfected as subconfluent monolayer. […]
as §1

SMILES: O=C(O)CC(O)(CC(=O)O)C(=O)O [sodium citrate]
- Level of reporter protein expression after intratracheal administration of plasmid, enhancement by co-administration (mouse lung; listed as citrate): Neither EDTA nor citrate significantly enhanced the level of expression

SMILES: O=C(O)CN(CCN(CC(=O)O)CC(=O)O)CC(=O)O [EDTA, ethylenediaminetetraacetic acid]
- Level of reporter protein expression after intratracheal administration of plasmid, enhancement by co-administration (mouse lung): Neither EDTA nor citrate significantly enhanced the level of expression

SMILES: O=C(O)C1=CC(=C(c2ccc(O)c(C(=O)O)c2)c2ccc(O)c(C(=O)O)c2)C=CC1=O [ATA, aurin tricarboxylic acid]
- Histologically apparent acute toxicity [1]: lack of histologically apparent acute toxicity
- Toxicity to cells (NIH3T3): toxic and killed cells
- increase over free DNA transfections (mouse lung; doses of ATA virtually nontoxic to the lung): 57%
- enhancement of reporter gene expression, test group on average (Macaque Skin): 11 fold
- lethality due to the ATA ([2]; 2 mg/kg ATA or lower doses, during the 48 hours after treatment): no lethality
- mice died ([2]; 6 mg/kg ATA intratracheal with 100 micrograms plasmid): 50%
- mice died ([2]; 8 mg/kg ATA intratracheal with 100 micrograms plasmid): 100%
- pulmonary dose associated with significant mortality ([2]; intratracheal, mouse): > 2 μg/g body weight
- Lung histology (H&E) after intratracheal plasmid +/- ATA ([2]; mouse lung, two days after treatment, plasmid with 0.5 or 6 mg ATA/g body mass): indistinguishable; also recorded: virtually nontoxic to the lung; also recorded: No significant histologic alterations
- Health assessment of mice after transfection ([2]; up to 48 hours after transfection): healthy with no physical or behavioral side effects observed
- Toxicity to cells (16HBE14o): toxic and killed cells
